Structures can show the parent of a compound that is named as a salt.
What follows are compounds tested against human GlyT1c transporter (Homo sapiens (Human), UniProt P48067) (assay: Radioligand binding assay using recombinant CHO cell membranes expressing human GlyT1). Conditions: human GlyT1c-expressing CHO cell membranes; read-out: radioligand binding Kiapp.
Excerpt: 2. Radioligand binding assays using recombinant CHO cell membranes expressing human GlyT1: […]

Sequence of human GlyT1c transporter (P48067 whole entry): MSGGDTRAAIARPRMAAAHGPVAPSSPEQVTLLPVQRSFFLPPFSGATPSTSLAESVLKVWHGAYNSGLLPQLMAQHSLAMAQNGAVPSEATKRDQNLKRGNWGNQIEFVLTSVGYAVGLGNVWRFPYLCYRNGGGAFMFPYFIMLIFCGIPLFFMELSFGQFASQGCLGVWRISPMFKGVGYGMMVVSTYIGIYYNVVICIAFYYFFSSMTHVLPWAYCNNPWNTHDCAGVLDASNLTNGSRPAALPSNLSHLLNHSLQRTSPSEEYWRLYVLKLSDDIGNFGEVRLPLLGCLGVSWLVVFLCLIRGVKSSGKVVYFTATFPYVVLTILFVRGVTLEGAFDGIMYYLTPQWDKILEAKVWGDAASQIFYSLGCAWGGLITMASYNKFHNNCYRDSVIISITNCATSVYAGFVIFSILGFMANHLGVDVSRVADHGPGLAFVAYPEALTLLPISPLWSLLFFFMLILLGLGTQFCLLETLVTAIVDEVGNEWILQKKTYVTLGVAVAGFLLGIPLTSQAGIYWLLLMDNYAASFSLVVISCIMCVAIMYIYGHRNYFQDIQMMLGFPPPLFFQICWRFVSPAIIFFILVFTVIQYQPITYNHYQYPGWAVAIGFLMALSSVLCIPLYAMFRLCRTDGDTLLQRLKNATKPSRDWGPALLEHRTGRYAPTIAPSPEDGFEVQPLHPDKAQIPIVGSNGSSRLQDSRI

| SMILES | Ki |
| --- | --- |
| Cn1cnc(S(=O)(=O)NCc2ccc3c(c2)C(Cc2ccc(F)cc2)C(N)CC3)c1 (stereo not shown) [Example 176, N-{[7-Amino-8-(4-fluorobenzyl)-5,6,7,8-tetrahydronaphthalen-2-yl]methyl}-1-methyl-1H-imidazole-4-sulfonamide hydrochloride] | ≤ 100 nM |
| Cn1cnc(S(=O)(=O)NCc2ccc3c(c2)C(Cc2cccc(F)c2)C(N)CC3)c1 (stereo not shown) [Example 177, N-{[7-Amino-8-(3-fluorobenzyl)-5,6,7,8-tetrahydronaphthalen-2-yl]methyl}-1-methyl-1H-imidazole-4-sulfonamide hydrochloride] | ≤ 10 nM |
| Cn1cc(S(=O)(=O)NCc2ccc3c(c2)C(Cc2cccc(F)c2)C(N)CC3)cn1 (stereo not shown) [Example 178, N-{[7-Amino-8-(3-fluorobenzyl)-5,6,7,8-tetrahydronaphthalen-2-yl]methyl}-1-methyl-1H-pyrazole-4-sulfonamide hydrochloride] | ≤ 10 nM |
| Cc1cccc(S(=O)(=O)NCc2ccc3c(c2)C(Cc2ccccc2)C(N)CC3)c1 (stereo not shown) [Example 179, N-{[7-Amino-8-benzyl-5,6,7,8-tetrahydronaphthalen-2-yl]methyl}-3-methylbenzenesulfonamide hydrochloride] | ≤ 1000 nM |
| Cn1ccc(S(=O)(=O)NCc2ccc3c(c2)C(Cc2ccccc2)C(N)CC3)c1 (stereo not shown) [Example 180, N-{[7-Amino-8-benzyl-5,6,7,8-tetrahydronaphthalen-2-yl]methyl}-1-methyl-1H-pyrrole-3-sulfonamide hydrochloride] | ≤ 10 nM |
| NC1CCc2ccc(CNS(=O)(=O)c3cccnc3)cc2C1Cc1ccccc1 (stereo not shown) [Example 181, N-{[7-Amino-8-benzyl-5,6,7,8-tetrahydronaphthalen-2-yl]methyl}pyridine-3-sulfonamide dihydrochloride] | ≤ 100 nM |
| Cn1cc(S(=O)(=O)NCc2ccc3c(c2)C(Cc2ccccc2)C(N)CC3)c(C(F)(F)F)n1 (stereo not shown) [Example 182, N-{[7-Amino-8-benzyl-5,6,7,8-tetrahydronaphthalen-2-yl]methyl}-1-methyl-3-(trifluoromethyl)-1H-pyrazole-4-sulfonamide hydrochloride] | ≤ 100 nM |
| Cn1ccc(S(=O)(=O)NCc2ccc3c(c2)C(Cc2ccccc2)C(N)CC3)n1 (stereo not shown) [Example 183, N-{[7-Amino-8-benzyl-5,6,7,8-tetrahydronaphthalen-2-yl]methyl}-1-methyl-1H-pyrazole-3-sulfonamide hydrochloride] | ≤ 1000 nM |
| NC1CCc2ccc(CNS(=O)(=O)C3CCC3)cc2C1Cc1cccc(F)c1 (stereo not shown) [Example 184, N-{[7-Amino-8-(3-fluorobenzyl)-5,6,7,8-tetrahydronaphthalen-2-yl]methyl}cyclobutanesulfonamide hydrochloride] | ≤ 100 nM |
| NC1CCc2ccc(CNS(=O)(=O)CC3CC3)cc2C1Cc1ccc(F)c(F)c1 (stereo not shown) [Example 185, N-{[7-Amino-8-(3,4-difluorobenzyl)-5,6,7,8-tetrahydronaphthalen-2-yl]methyl}-1-cyclopropylmethanesulfonamide hydrochloride] | ≤ 1000 nM |
| NC1CCc2ccc(CNS(=O)(=O)C3CCC3)cc2C1Cc1ccc(F)c(F)c1 (stereo not shown) [Example 186, N-{[7-Amino-8-(3,4-difluorobenzyl)-5,6,7,8-tetrahydronaphthalen-2-yl]methyl}cyclobutanesulfonamide hydrochloride] | ≤ 1000 nM |
| CNC1CCc2ccc(CNS(=O)(=O)C3CCC3)cc2C1Cc1ccccc1 (stereo not shown) [Example 188, N-{[8-Benzyl-7-(methylamino)-5,6,7,8-tetrahydronaphthalen-2-yl]methyl}cyclobutanesulfonamide hydrochloride] | ≤ 100 nM |
| CNC1CCc2ccc(CNS(=O)(=O)c3cccc(C)c3)cc2C1Cc1ccccc1 (stereo not shown) [Example 189, N-{[8-Benzyl-7-(methylamino)-5,6,7,8-tetrahydronaphthalen-2-yl]methyl}-3-methylbenzenesulfonamide hydrochloride] | ≤ 10000 nM |
| CNC1CCc2ccc(CNS(=O)(=O)c3ccn(C)c3)cc2C1Cc1ccccc1 (stereo not shown) [Example 190, N-{[8-Benzyl-7-(methylamino)-5,6,7,8-tetrahydronaphthalen-2-yl]methyl}-1-methyl-1H-pyrrole-3-sulfonamide hydrochloride] | ≤ 10 nM |
| CNC1CCc2ccc(CNS(=O)(=O)c3ccn(C)n3)cc2C1Cc1ccccc1 (stereo not shown) [Example 191, N-{[8-Benzyl-7-(methylamino)-5,6,7,8-tetrahydronaphthalen-2-yl]methyl}-1-methyl-1H-pyrazole-3-sulfonamide hydrochloride] | ≤ 1000 nM |
| CC(=O)NC1CCc2ccc(CNS(=O)(=O)c3cn(C)cn3)cc2C1Cc1ccc(F)cc1 (stereo not shown) [Example 197] | ≤ 10000 nM |
| CCNC1CCc2ccc(CNS(=O)(=O)c3cn(C)cn3)cc2C1Cc1ccc(F)cc1 (stereo not shown) [Example 199, 1-Methyl-1H-imidazole-4-sulfonic acid [7-ethylamino-8-(4-fluoro-benzyl)-5,6,7,8-tetrahydro-naphthalen-2-ylmethyl]-amide hydrochloride] | ≤ 100 nM |
| CCNC1CCc2ccc(CNS(=O)(=O)c3cnn(C)c3)cc2C1Cc1cccc(F)c1 (stereo not shown) [Example 200, 1-Methyl-1H-pyrazole-4-sulfonic acid [7-ethylamino-8-(3-fluoro-benzyl)-5,6,7,8-tetrahydronaphthalen-2-ylmethyl]-amide hydrochloride] | ≤ 100 nM |
| CCCS(=O)(=O)NCCCc1ccc2c(c1)C(Cc1ccc(Cl)cc1)C(N)CC2 (stereo not shown) [Example 201, N-{3-[7-Amino-8-(4-chlorobenzyl)-5,6,7,8-tetrahydronaphthalen-2-yl]propyl}propane-1-sulfonamide hydrochloride] | ≤ 100 nM |
| NC1CCc2ccc(CCCNS(=O)(=O)CC3CC3)cc2C1Cc1ccc(Cl)cc1 (stereo not shown) [Example 202, N-{3-[7-Amino-8-(4-chlorobenzyl)-5,6,7,8-tetrahydronaphthalen-2-yl]propyl}-1-cyclopropylmethanesulfonamide hydrochloride] | ≤ 100 nM |
| CCCS(=O)(=O)NCCCc1ccc2c(c1)C(Cc1ccc(Cl)c(Cl)c1)C(N)CC2 (stereo not shown) [Example 203, N-{3-[7-Amino-8-(3,4-dichlorobenzyl)-5,6,7,8-tetrahydronaphthalen-2-yl]propyl}propane-1-sulfonamide hydrochloride] | ≤ 10 nM |
| NC1CCc2ccc(CCCNS(=O)(=O)CC3CC3)cc2C1Cc1ccc(F)c(F)c1 (stereo not shown) [Example 204, N-{3-[7-Amino-8-(3,4-difluoro-benzyl)-5,6,7,8-tetrahydro-naphthalen-2-yl]-propyl}-C-cyclopropyl-methanesulfonamide hydrochloride] | ≤ 100 nM |
| CCCS(=O)(=O)NCCCc1ccc2c(c1)C(Cc1ccc(F)c(F)c1)C(N)CC2 (stereo not shown) [Example 206, N-{3-[7-Amino-8-(3,4-difluoro-benzyl)-5,6,7,8-tetrahydronaphthalen-2-yl]propyl}propane-1-sulfonamide hydrochloride] | ≤ 100 nM |
| NC1CCc2ccc(CCCNS(=O)(=O)CC3CC3)cc2C1Cc1ccccc1 (stereo not shown) [Example 207, N-{3-[7-Amino-8-benzyl-5,6,7,8-tetrahydronaphthalen-2-yl]propyl}-1-cyclopropylmethanesulfonamide trifluoroacetate] | ≤ 100 nM |
| NC1CCc2ccc(CCCNS(=O)(=O)CC3CC3)cc2C1Cc1ccc(F)cc1 (stereo not shown) [Example 208, N-{3-[7-Amino-8-(4-fluorobenzyl)-5,6,7,8-tetrahydronaphthalen-2-yl]propyl}-1-cyclopropylmethanesulfonamide hydrochloride] | ≤ 100 nM |

Source: patent publication US9067871B2, “Aminotetraline derivatives, pharmaceutical compositions containing them, and their use in therapy” (ABBVIE DEUTSCHLAND GMBH & CO KG, priority 2009, dated 2015)
